Consider one compound from patent publication US20240109843A1, “BENZALDEHYDE COMPOUNDS WITH DIRECT POLYMER DESTABILIZING EFFECTS TO TREAT SICKLE CELL DISEASE” (VIRGINIA COMMONWEALTH UNIVERSITY, priority 2018, published 2024).

Structures are written as SMILES. Bounds are passed on as bounds.

Data set [1] is described as follows: Single-dose oral pharmacokinetics in rats. The class given is in vivo, Sprague Dawley rats. Conditions: oral administration, data not shown. As to the method: Single doses of each compound were administered as oral suspensions by gavage in 0.5% carboxy methylcellulose at 100 mg/kg. Whole blood levels were collected for at least 72 hours after dose administration. Bioanalyses were performed with liquid chromatography-tandem mass spectrometry […].
Single-dose pharmacokinetics (PK) in male Sprague Dawley (SD) rats (n=4) were assessed for each compound, and the maximum or peak whole blood concentration and area under the curve are shown in Table 5.

Data set [2] deals with T1, Hb (Homo sapiens, UniProt P69905). The data set is described as follows: Hb modification (drug-adduct formation) in SS blood suspensions by cation-exchange HPLC. The note with it: 2 mM, 4 biological replicates. On the set-up: Blood suspensions from subjects with homozygous SCD; from tissue; host or cells: blood suspensions (20% hematocrit) from donors with homozygous SCD; lysates of the treated red cells. The format is binding. Summed up: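 Homozygous SCD blood at 20% hematocrit in Hemox buffer with glucose and BSA was incubated with compound (0-2 mM) 1 h at 37° C in air, then up to 2 h hypoxia (2.5% O2). Lysates, with or without 50 mM sodium borohydride reduction, were analysed by weak cation-exchange HPLC at A410 nm for Hb-drug adducts.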
Target sequence in this assay (P69905 2-142): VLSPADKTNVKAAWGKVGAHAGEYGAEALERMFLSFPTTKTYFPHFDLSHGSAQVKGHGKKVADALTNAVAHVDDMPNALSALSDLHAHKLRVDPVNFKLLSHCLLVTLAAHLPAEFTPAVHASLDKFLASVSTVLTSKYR
Target sequence in this assay (P68871 with tags, fused parts or gaps E7V partner): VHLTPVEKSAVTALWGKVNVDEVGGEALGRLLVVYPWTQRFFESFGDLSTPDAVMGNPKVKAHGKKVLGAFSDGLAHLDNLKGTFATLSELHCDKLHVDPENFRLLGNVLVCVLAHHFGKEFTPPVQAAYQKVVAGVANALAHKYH

For the next data set, the system named is sickle red blood cells. The data set is described as follows: Antisickling study with human sickle blood under 2.5% oxygen. Conditions: Homo sapiens, Erythrocyte, sickle RBCs, 2.5% oxygen, read-out: sickling inhibition. The format is cell-based. Summed up: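 Homozygous SCD blood at 20% hematocrit preincubated with compound (0.5, 1, 2 mM) under air for 1 h at 37 °C, then under 2.5% O2 for 1 h. Cells fixed in 2% glutaraldehyde without air exposure; sickling scored by bright-field morphology at 40×.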

Data set [3] deals with RBCs from donors with homozygous SCD. As to the kind of experiment: Oxygen-independent sickle inhibition in SS blood suspensions under anoxia (100% nitrogen). The class given is cell-based, human. Conditions: Homo sapiens, 2 mM, 4 biological replicates, read-out: % Sickling Inhibition (Anoxia). Summed up: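 After room-air re-oxygenation for 15 min to reverse sickling, SS blood suspensions were held under 100% nitrogen for 1 h (screening) or up to 2.5 h (time course), with aliquots fixed at set intervals. Sickled versus non-sickled cells were counted by bright-field microscopy to calculate sickle inhibition.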

In data set [4] the target is T1, Hb. The data set is described as follows: Affinity (KD) for Hb. The class given is binding.
Target sequence in this assay (P69905 2-142 limits assumed): as the sequence (P69905 2-142) above
Target sequence in this assay (P68871 2-147 partner limits assumed): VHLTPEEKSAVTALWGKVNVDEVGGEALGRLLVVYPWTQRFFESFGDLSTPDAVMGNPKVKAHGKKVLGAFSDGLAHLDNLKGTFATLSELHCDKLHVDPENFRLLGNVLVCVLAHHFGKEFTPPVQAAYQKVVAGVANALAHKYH
In data set [5] the target is T2, Hb (Mus musculus, UniProt P01942).
T2 construct: from tissue; host or cells: blood (red cell lysates) of dosed C57BL/6 mice
The data set is described as follows: In vivo Hb oxygen affinity shift (Δp50) in wild-type mice. Also noted: species or system C57BL/6 mice. The note with it: for increase in Hb affinity (Δp50): IP 150 mg/kg. Here is the method:
We tested in vivo pharmacologic (pharmacodynamics) effects of select PP compounds in C57BL/6 mice. The animals were treated with a single intraperitoneal (IP) (150 mg/kg body weight) dose of PP6, PP10, PP14, and TD7, which were formulated with 30% PEG300. Blood samples were obtained prior to treatment (0) and 1, 3 and 6 h post-treatment, via submandibular bleeding, and subjected to hemolysis using standard methods. Clarified lysates, free of cell debris and red blood cell ghosts were analyzed by cation-exchange HPLC to determine the levels of drug-modified hemoglobin (adducts); and to conduct oxygen equilibrium studies to determine degrees of shift in p50 values using methodologies described earlier for in vitro studies on human samples. In a subsequent follow-up experiment, a new excipient obtained from Catalent Pharma Solutions was also used to formulate PP14 and used for a single intraperitoneal (IP) and oral (150 mg/kg body weight) dose. Blood samples were obtained prior to treatment (0) and 1, 3 or 5 h post-treatment, via submandibular bleeding, and used to determine the levels of drug-modified hemoglobin (adducts); and to conduct oxygen equilibrium studies to determine degrees of shift in p50 values as described above.

T2 sequence (P01942 2-142 limits assumed): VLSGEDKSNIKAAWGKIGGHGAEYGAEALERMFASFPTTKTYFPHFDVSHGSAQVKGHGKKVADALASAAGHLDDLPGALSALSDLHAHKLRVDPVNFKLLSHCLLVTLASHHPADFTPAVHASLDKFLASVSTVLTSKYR
T2 sequence (P02088 2-147 partner limits assumed): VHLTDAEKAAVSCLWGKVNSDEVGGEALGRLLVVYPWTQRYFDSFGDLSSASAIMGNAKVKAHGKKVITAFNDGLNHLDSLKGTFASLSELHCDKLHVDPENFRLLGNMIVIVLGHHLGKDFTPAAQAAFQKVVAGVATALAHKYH

One may read the inhibition as the percentage by which the read-out fell short of the control. The term Kd denotes the concentration at which binding is half-saturated. As for `COC(=O)c1ccc(COc2cccc(O)c2C=O)cn1` [PP14, Methyl 5-((2-formyl-3-hydroxyphenoxy)methyl)picolinate], the “metabolism upon oral administration” value in data set [1] is “rapidly metabolizes into its carboxylic acid metabolite”. Besides, on Hb [2], the “Hb Modification (%)” value worked out at 85.3 ± 11.3%. In addition, the inhibition at 500 µM in the data set on sickle red blood cells (0.5 mM) was over 35%. The inhibition at 1000 µM in the data set with sickle red blood cells (1 mM) was over 70%. In addition, the inhibition at 2000 µM in data set [3] was 80.5 ± 17.4%. Besides, the Kd on Hb [4] stood at 150 µM. For the same compound, the “increase in Hb affinity (Δp50)” value on Hb [5] (30% PEG300) is recorded as 12%; on Hb [5] (Catalent excipient, 5 hr), 43.5±7.7%. In addition, on Hb [5] (oral gavage 150 mg/kg, Catalent excipient), the “increase in Hb oxygen affinity (Δp50)” value was 10.3±1.5%.
